pIC50: −log10 of the molar value.

Assay [1] concerns the target T1, BRD4 bromo domain 2 [BRD4(2)] (Homo sapiens, UniProt O60885).
T1 construct: N-terminally His6-tagged BRD4(2) (amino acids 357-445); made in house; host or cells: E. coli
Kind of assay: BRD4/acetylated peptide H4 binding assay (TR-FRET), BRD4 bromo domain 2. The following applies: inhibition of BRD4(2)/Ac-H4 peptide interaction. In outline: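 Binding of His6-BRD4(2) (aa 357-445, 100 nM final) to biotinylated tetra-acetylated H4 peptide read by TR-FRET (665/620 nm). Compound preincubated 10 min at 22 °C, then 1 h at 22 °C plus ≥3 h at 4 °C. Eleven concentrations (0.1 nM–20 μM) in duplicate; IC50 by 4-parameter fit.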
In general terms: In TR-FRET formats the signal depends on donor and acceptor labels being close together.

Assay [2] concerns MOLM-13 cells. Kind of assay: Cell proliferation assay (alamarBlue), MOLM-13. The following applies: Homo sapiens; MOLM-13 (acute myeloid leukaemia), 96 hours. The format is cell-based. On the procedure: (§1) In accordance with the invention, the ability of the substances to inhibit cell proliferation was determined. Cell viability was determined by means of the alamarBlue® reagent (Invitrogen) in a Victor X3 Multilabel Reader (Perkin Elmer). The excitation wavelength was 530 nm and the emission wavelength […].
The MOLM-13 cells (DSMZ, ACC 554) were sown at a concentration of 4000 cells/well in 100 μl of growth medium (RPMI1640, 10% FCS) on 96-well microtitre plates.
(§2) After overnight incubation at 37° C., the fluorescence values were determined (CI values). Then the plates were treated with various substance dilutions (1E-5 M, 3E-6 M, 1E-6 M, 3E-7 M, 1E-7 M, 3E-8 M, 1E-8 M) and incubated at 37° C. over 96 hours (MOLM-13, B16F10, CHL-1 cells) or 120 hours (MOLP-8 cells). Subsequently, the fluorescence values were determined (CO values). For the data analysis, the CI values were subtracted from the CO values and the results were compared between cells which had been treated with various dilutions of the substance or only with buffer solution. The IC50 values (substance concentration needed for 50% inhibition of cell proliferation) were calculated therefrom.
On the technique in general: The colour change of resazurin is a common sign of viable cells or microbes.

Assay [3] concerns B16F10 cells. Kind of assay: Cell proliferation assay (alamarBlue), B16F10. The format is cell-based. As to conditions: Mus musculus, B16-F10; B16F10 (melanoma, BRAF wild-type), 96 hours. Here is the method:
as §1
The B16F10 cells (ATCC, CRL-6475) were sown at a concentration of 300-500 cells/well in 100 μl of growth medium (DMEM with phenol red, 10% FCS) on 96-well microtitre plates.
as §2

`COCCN1c2nc(Nc3cccc(S(=O)(=O)N4CCOCC4)c3)ccc2N(C)C(=O)C1C` (racemic) [Example 49, 4-(2-methoxyethyl)-1,3-dimethyl-6-{[3-(morpholin-4-ylsulphonyl)phenyl]amino}-3,4-dihydropyrido[2,3-b]pyrazin-2(1H)-one]: the negative logarithm of the IC50 (pIC50) (in general, −log10 of the IC50, conventionally taken in molar units) in assay [1] was 6.80; in assay [2], 6.57; in assay [3], 6.40.
Taken in the same sequence, the figures for `COCCN1c2nc(Nc3cccc(S(=O)(=O)N4CCN(C)CC4)c3)ccc2N(C)C(=O)C1C` (racemic) [Example 53, 4-(2-methoxyethyl)-1,3-dimethyl-6-({3-[(4-methylpiperazin-1-yl)sulphonyl]phenyl}-amino)-3,4-dihydropyrido-[2,3-b]pyrazin-2(1H)-one] were 6.73, 6.25 and 5.89.
Taken in the same sequence, the figures for `CC1C(=O)N(C)c2ccc(Nc3cccc(C(=O)NC4CCN(C)CC4)c3)nc2N1c1ccccc1` (racemic) [Example 104, 3-[(1,3-dimethyl-2-oxo-4-phenyl-1,2,3.4-tetrahydropyrido[2,3-b]pyrazin-6-yl)amino]-A-(1-methylpiperidin-4-yl)benzamide] were 6.33, 5.84 and 5.61.
The matching figures for `COCCN1c2nc(Nc3cccc(S(=O)(=O)N4CCOCC4)c3)ccc2N(C)C(=O)[C@H]1C` (stereo in doubt) [Example 111, (3R)-4-(2-methoxyethyl)-1,3-dimethyl-6-{[3-(morpholin-4-ylsulphonyl)phenyl]amino}-3,4-dihydropyrido[2,3-b]pyrazin-2(1H)-one]: 6.94, 6.65 and 6.50.
On to `C[C@@H]1C(=O)N(C)c2ccc(Nc3cccc(C(=O)N4CCN(C)CC4)c3)nc2N1C1CCCC1` [Example 1, (3R)-4-Cyclopentyl-1,3-dimethyl-6-({3-[(4-methylpiperazin-1-yl)carbonyl]phenyl}amino)-3,4-dihydropyrido[2,3-b]pyrazin-2(1H)-one], for which the pIC50 in assay [1] is 7.26; in assay [2], 6.21; in assay [3], 6.18.
Taken in the same sequence, the figures for `C[C@@H]1C(=O)N(C)c2ccc(Nc3cccc(C(=O)NC4CCN(C)CC4)c3)nc2N1C1CCCC1` [Example 2, 3-{[(3R)-4-Cyclopentyl-1,3-dimethyl-2-oxo-1,2,3,4-tetrahydropyrido[2,3-b]pyrazin-6-yl]amino}-N-(1-methylpiperidin-4-yl)benzamide] were 7.05, 6.45 and 6.35.
`C[C@@H]1C(=O)N(C)c2ccc(Nc3cccc(C(=O)NC4CN(C)C4)c3)nc2N1C1CCCC1` [Example 3, 3-{[(3R)-4-Cyclopentyl-1,3-dimethyl-2-oxo-1,2,3,4-tetrahydropyrido[2,3-b]pyrazin-6-yl]amino}-N-(1-methylazetidin-3-yl)benzamide]: the pIC50 in assay [1] is 7.04; in assay [2], 6.53; in assay [3], 6.16.
Taken in the same sequence, the figures for `C[C@@H]1C(=O)N(C)c2ccc(Nc3cccc(C(=O)NCCN(C)C)c3)nc2N1C1CCCC1` [Example 4, 3-{[(3R)-4-Cyclopentyl-1,3-dimethyl-2-oxo-1,2,3,4-tetrahydropyrido[2,3-b]pyrazin-6-yl]amino}-N-[2-(dimethylamino)ethyl]benzamide] were 7.00, 6.27 and 6.11.
Turning to `C[C@@H]1C(=O)N(C)c2ccc(Nc3cccc(C(=O)N[C@H]4CC[C@H](N5CCN(CC6CC6)CC5)CC4)c3)nc2N1C1CCCC1` [Example 5, 3-{[(3R)-4-Cyclopentyl-1,3-dimethyl-2-oxo-1,2,3,4-tetrahydropyrido[2,3-b]pyrazin-6-yl]amino}-N-{trans-4-[4-(cyclopropylmethyl)piperazin-1-yl]cyclohexyl}benzamide], the values for the negative-log IC50 (pIC50) in assay [1], in assay [2] and in assay [3] were 7.23, 6.49 and 6.30, respectively.
As to `C[C@@H]1C(=O)N(C)c2ccc(Nc3cccc(S(=O)(=O)N(C)C)c3)nc2N1C1CCOCC1` [Example 6, 3-{[(3R)-1,3-Dimethyl-2-oxo-4-(tetrahydro-2H-pyran-4-yl)-1,2,3,4-tetrahydropyrido[2,3-b]pyrazin-6-yl]amino}-N,N-dimethylbenzenesulphonamide], the negative logarithm of the IC50 (pIC50) in assay [1] was 7.49; in assay [2], 7.28; in assay [3], 7.15.
With `C[C@@H]1C(=O)N(C)c2ccc(Nc3cccc(S(=O)(=O)N(C)C)c3)cc2N1C1CCOCC1` [Example 7, 3-{[(3R)-1,3-Dimethyl-2-oxo-4-(tetrahydro-2H-pyran-4-yl)-1,2,3,4-tetrahydroguinoxalin-6-yl]amino}-N,N-dimethylbenzenesulphonamide], the pIC50 in assay [1] is 7.15; in assay [2], 6.83; in assay [3] it was 6.75.
Taken in the same sequence, the figures for `C[C@@H]1C(=O)N(C)c2ccc(Nc3cccc(S(=O)(=O)N4CCOCC4)c3)cc2N1C1CCOCC1` [Example 8, (3R)-1,3-Dimethyl-6-{[3-(morpholin-4-ylsulphonyl)phenyl]amino}-4-(tetrahydro-2H-pyran-4-yl)-3,4-dihydroquinoxalin-2(1H)-one] were 7.05, 6.57 and 6.59.
`C[C@@H]1C(=O)N(C)c2ccc(Nc3cccc(S(=O)(=O)N4CCOCC4)c3)nc2N1C1CCOCC1` [Example 9, (3R)-1,3-Dimethyl-6-{[3-(morpholin-4-ylsulphonyl)phenyl]amino}-4-(tetrahydro-2H-pyran-4-yl)-3,4-dihydropyrido[2,3-b]pyrazin-2(1H)-one]: the negative logarithm of the IC50 (pIC50) in assay [1] is 7.27; in assay [2], 7.18; in assay [3], 7.11.
Taken in the same sequence, the figures for `COc1ccc(CN2c3cc(Nc4cccc(S(=O)(=O)N(C)C)c4)ccc3N(C)C(=O)[C@H]2C)cc1` [Example 10, 3-{[(3R)-4-(4-Methoxybenzyl)-1,3-dimethyl-2-oxo-1,2,3,4-tetrahydroquinoxalin-6-yl]amino}-N,N-dimethylbenzenesulphonamide] were 7.21, 6.63 and 6.91.
The matching figures for `C[C@@H]1C(=O)N(C)c2ccc(Nc3cccc(S(=O)(=O)N4CCN(C)CC4)c3)nc2N1C1CCOCC1` [Example 12, (3R)-1,3-Dimethyl-6-({3-[(4-methylpiperazin-1-yl)sulphonyl]phenyl}amino)-4-(tetrahydro-2H-pyran-4-yl)-3,4-dihydropyrido[2,3-b]pyrazin-2(1H)-one]: 7.17, 6.71 and 6.26.
Taken in the same sequence, the figures for `C[C@@H]1C(=O)N(C)c2ccc(Nc3cccc(C(=O)NC4CCN(C)CC4)c3)nc2N1C1CCOCC1` [Example 13, 3-{[(3R)-1,3-Dimethyl-2-oxo-4-(tetrahydro-2H-pyran-4-yl)-1,2,3,4-tetrahydropyrido[2,3-b]pyrazin-6-yl]amino}-N-(1-methylpiperidin-4-yl)benzamide] were 6.66, 6.16 and 6.08.
On to `C[C@@H]1C(=O)N(C)c2ccc(Nc3cccc(C(=O)N[C@H]4CC[C@H](N5CCN(CC6CC6)CC5)CC4)c3)nc2N1C1CCOCC1` [Example 14, N-{trans-4-[4-(Cyclopropylmethyl)piperazin-1-yl]cyclohexyl}-3-{[(3R)-1,3-dimethyl-2-oxo-4-(tetrahydro-2H-pyran-4-yl)-1,2,3,4-tetrahydropyrido[2,3-b]pyrazin-6-yl]amino}benzamide], for which the values for the negative logarithm of the IC50 (pIC50) in assay [1], in assay [2] and in assay [3] were 6.77, 6.46 and 6.09, respectively.
Turning to `C[C@@H]1C(=O)N(C)c2ccc(Nc3cccc(C(=O)N4CCN(C)CC4)c3)nc2N1C1CCOCC1` [Example 15, (3R)-1,3-Dimethyl-6-({3-[(4-methylpiperazin-1-yl)carbonyl]phenyl}amino)-4-(tetrahydro-2H-pyran-4-yl)-3,4-dihydropyrido[2,3-b]pyrazin-2(1H)-one], the pIC50 is 6.71 in assay [1], 6.29 in assay [2] and 5.97 in assay [3].
The matching figures for `COc1ccc(C(=O)NC2CCN(C)CC2)cc1Nc1ccc2c(n1)N(C1CCOCC1)[C@H](C)C(=O)N2C` [Example 16, 3-{[(3R)-1,3-Dimethyl-2-oxo-4-(tetrahydro-2H-pyran-4-yl)-1,2,3,4-tetrahydropyrido[2,3-b]pyrazin-6-yl]amino}-4-methoxy-N-(1-methylpiperidin-4-yl)benzamide]: 6.76, 6.17 and 5.94.

For the origin of these results see patent publication US20160176867A1, “MODIFIED BET-PROTEIN-INHIBITING DIHYDROQUINOXALINONES AND DIHYDROPYRIDOPYRAZINONES” (BAYER PHARMA AKTIENGESELLSCHAFT, priority 2013, published 2016).
